Data on four molecules can be found in patent US11535597B2, “Photoreactive ligands and uses thereof” (The Scripps Research Institute, priority 2017, dated 2022).

“Also recorded” adds a separate entry of the source.

Experiment [1] has as its system proteins in HEK293T cells. Kind of experiment: MS-based mapping of FFF probe-modified peptides (isoTOP, sites of labeling). The format is binding, human. As for the experimental part: (§1) Preparation and analysis was adapted from methods previously reported. In brief, for global mapping of fragment probe-modified peptides, separate 10 cm dishes of cells were treated with probes (200-250 μM) in 3.0 mL of DMEM (serum-free) and (if applicable) competitor ligands, proteomes harvested and subjected to click chemistry conditions with either light or heavy isotopically labeled biotin-TEV-azide (10 μL of 5 mM stocks in DMSO, final concentration=100 μM), TCEP, ligand and CuSO4 as detailed above. The samples were allowed to react for 1 h at which point the samples were centrifuged (16,000 g, 5 min, 4° C.). The resulting pellets were sonicated in ice-cold methanol (500 μL) and the resuspended light- and heavy-labeled samples were then combined and centrifuged (16,000 g, 5 min, 4° C.). The pellets were then solubilized in PBS containing 1.2% SDS (1 mL) with sonication and heating (5 min, 95° C.). Samples were transferred to falcon tubes containing DPBS (5 mL), to which a 100 μL of streptavidin-agarose beads slurry was added. After incubation, the beads (3 hr) were pelleted by centrifugation (1,400 g, 3 min) and were washed (2×10 mL PBS and 2×10 mL water). The beads were transferred to eppendorf tubes with 1 mL DPBS, centrifuged (1,400 g, 3 min), and resuspended in PBS containing 6 M urea. To this was added 10 mM DTT (25 μL of a 200 mM stock in water) and the beads were incubated at 65° C. for 15 mins. 20 mM iodoacetamide (25 μL of a 400 mM stock in water) was then added and allowed to react at 37° C. for 30 mins with shaking. The bead mixture was diluted with 900 μL PBS, pelleted by centrifugation (1,400 g, 3 min), and resuspended in 200 μL 2M urea (DPBS) containing trypsin and CaCl2 as described above. The beads were separated from the digest by centrifugation (1,000 g, 1 min), washed (2×1 mL PBS and 2×1 mL water) and then transferred to fresh eppendorfs with 1 mL water. The washed beads were washed once further in 150 μL TEV buffer (50 mM Tris, pH 8, 0.5 mM EDTA, 1 mM DTT) by centrifugation (1,400 g, 3 min) and the resuspended in 150 μL TEV buffer. 5 μL TEV protease (80 μM) was added and the reactions were rotated overnight at 29° C. The TEV digest was separated from the beads by centrifugation (1,400 g, 3 min) and the beads were washed once with water (100 μL). The samples were then acidified to a final concentration of 5% (v/v) formic acid and stored at −80° C. prior to analysis.
The resulting probe-modified peptides were collected for MS analysis, which was performed as described above with differences in the salt bumps applied in the chromatographic gradients which in this case were 0%, 30%, 60%, 90% and 100% NH4OAc (500 μM). The protein identification searches of the MS data were performed with the following changes applied to identify the peptides modified with the corresponding fragment probe and the cleaved TEV tag. All amino acids were considered as possible residues for modification. To facilitate the computational searches, sets of up to 3 amino acids were searched using ProLuCID and filtered with DTASelect as described above. […] The isoTOP ratios for probe labeled peptides were quantified using the in-house software CIMAGE.
For each protein in the site-of-labeling dataset, the UniProtKB accession number was used to map and collect relevant structures from the RCSB Protein Data Bank (PDB) fulfilling the following criteria: structures determined by X-ray crystallography, wild-type protein, Homo sapiens as the sole source organism. […] Fpocket 2.0 was used to detect potential binding pockets for the resultant structures with all parameters set at recommended default. Pockets with volume less than 500 Å^3 were removed from output prior to further analysis. Residues surrounding fpocket predicted binding pockets for each protein were collected to determine the number of residues overlapping with isoTOP peptides.

In the next experiment the target is T1, α-galactosidase (GLA) (Homo sapiens, UniProt P06280).
T1 construct: endogenous in cells; host or cells: human cells (HEK293T; a subset of probes also in K562)
T1 sequence (P06280 32-429): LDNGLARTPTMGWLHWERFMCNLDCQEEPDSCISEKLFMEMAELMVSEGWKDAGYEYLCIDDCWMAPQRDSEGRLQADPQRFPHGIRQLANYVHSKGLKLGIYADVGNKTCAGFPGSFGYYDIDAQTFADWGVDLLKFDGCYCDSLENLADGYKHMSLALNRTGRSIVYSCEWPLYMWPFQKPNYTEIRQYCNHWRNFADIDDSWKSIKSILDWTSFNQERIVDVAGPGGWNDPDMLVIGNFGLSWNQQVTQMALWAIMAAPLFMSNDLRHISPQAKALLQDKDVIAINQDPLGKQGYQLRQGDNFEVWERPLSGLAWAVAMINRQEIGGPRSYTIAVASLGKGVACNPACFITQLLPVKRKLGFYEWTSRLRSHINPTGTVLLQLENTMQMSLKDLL
Kind of experiment: Mapping of FFF probe-modified peptides on α-galactosidase (GLA). The format is binding. On the procedure:
as §1
(§2) The resulting probe-modified peptides were collected for MS analysis, which was performed as described above with differences in the salt bumps applied in the chromatographic gradients which in this case were 0%, 30%, 60%, 90% and 100% NH4OAc (500 μM). […] The isoTOP ratios for probe labeled peptides were quantified using the in-house software CIMAGE. […]

A further experiment has as its target T2, cathepsin B (CTSB) (Homo sapiens, UniProt P07858).
T2 construct: endogenous in cells; host or cells: HEK293T
Kind of experiment: Mapping and competition of FFF probe-modified peptide on cathepsin B (CTSB). The experiment is classed as binding. The settings on record: HEK293T cells co-treated with 9 (200 μM). On the procedure:
(§3) Preparation and analysis was adapted from methods previously reported. In brief, for global mapping of fragment probe-modified peptides, separate 10 cm dishes of cells were treated with probes (200-250 μM) in 3.0 mL of DMEM (serum-free) and (if applicable) competitor ligands, proteomes harvested and subjected to click chemistry conditions with either light or heavy isotopically labeled biotin-TEV-azide (10 μL of 5 mM stocks in DMSO, final concentration=100 μM), TCEP, ligand and CuSO4 as detailed above. The samples were allowed to react for 1 h at which point the samples were centrifuged (16,000 g, 5 min, 4° C.). The resulting pellets were sonicated in ice-cold methanol (500 μL) and the resuspended light- and heavy-labeled samples were then combined and centrifuged (16,000 g, 5 min, 4° C.). The pellets were then solubilized in PBS containing 1.2% SDS (1 mL) with sonication and heating (5 min, 95° C.). Samples were transferred to falcon tubes containing DPBS (5 mL), to which a 100 μL of streptavidin-agarose beads slurry was added. […]
as §2

Another experiment has as its target PTGR2 (Homo sapiens, UniProt Q8N8N7). The experiment in a line: Mapping and competition of FFF 8-modified tryptic peptides on PTGR2. The following applies: near the active site. The format is binding. On the procedure:
as §3, §2

Sequence of PTGR2 (Q8N8N7 whole entry): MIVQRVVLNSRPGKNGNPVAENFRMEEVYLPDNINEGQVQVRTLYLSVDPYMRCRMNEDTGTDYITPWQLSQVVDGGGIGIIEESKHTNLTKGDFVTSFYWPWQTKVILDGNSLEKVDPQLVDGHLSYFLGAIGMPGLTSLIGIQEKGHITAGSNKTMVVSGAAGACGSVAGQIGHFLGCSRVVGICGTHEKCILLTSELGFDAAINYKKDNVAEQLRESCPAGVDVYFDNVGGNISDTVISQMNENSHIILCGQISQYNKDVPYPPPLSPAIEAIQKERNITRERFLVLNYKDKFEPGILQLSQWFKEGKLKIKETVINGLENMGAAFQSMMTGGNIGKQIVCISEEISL

With `C#CCCC1(CCC(=O)NCc2ccc3sccc3c2)N=N1` [probe 4, N-(Benzo[b]thiophen-5-ylmethyl)-3-(3-(but-3-yn-1-yl)-3H-diazirin-3-yl)propanamide], the “Labeled Peptide of HCCS Cytochrome c-type heme lyase” value in experiment [1] (Accession P53701, residues of probe-labeled peptide, family Enzymes) was 200-210. Besides, the “Labeled Peptide” value in experiment [1] (HNRNPK Heterogeneous nuclear ribonucleoprotein K, residues of probe-modified peptide) is on record as 423-433; in experiment [1] (IDE Insulin-degrading enzyme, residues of probe-modified peptide), 312-324; in experiment [1] (NUP93 (Q8N1F7), residues of the probe-labeled peptide), 539-545; in experiment [1] (P07195 LDHB L-lactate) it was 234-244; in experiment [1] (P22830 FECH Fen-ochelatase, mitochondrial) it was 254-272; in experiment [1] (protein BCAS2 (O75934), residues of probe-labeled peptide), 137-151. Also, the “Labeled Peptide” value in experiment [1] (protein CPT2 Carnitine O-palmitoyltransferase 2, mitochondrial (P23786), residues of probe-labeled peptide) was 478-495; in experiment [1] (protein EMD Emerin (P50402), residues of probe-labeled peptide), 212-221; in experiment [1] (protein FECH Ferrochelatase, mitochondrial (P22830), residues of probe-labeled peptide) it was 254-272; in experiment [1] (protein FECH Ferrochelatase, mitochondrial, residues of probe-labeled peptide) it was 254-272; in experiment [1] (protein LDHB L-lactate dehydrogenase B chain, residues of the probe-labeled peptide), 234-244; in experiment [1] (protein P42166 TMPO Lamina-associated polypeptide 2, isoform alpha), 621-637. Besides, the “Labeled Peptide” value is on record as 136-149 in experiment [1] (protein PGRMC2 Membrane-associated progesterone receptor component (O15173)); 298-304 in experiment [1] (protein PSMD11 26S proteasome non-ATPase regulatory subunit 11 (O00231)); 254-287 in experiment [1] (protein Q14166 TTLL12); 217-241 in experiment [1] (residues of probe-labeled peptide on TUBB6 Tubulin beta-6 chain, Accession # Q9BUF5); 68-82 on α-galactosidase (GLA) (P06280 GLA Alpha-galactosidase A); 68-82 at α-galactosidase (GLA) (protein GLA Alpha-galactosidase A, residues of probe-labeled peptide). Further, on α-galactosidase (GLA) (Accession P06280, residues of probe-labeled peptide, family Enzymes), the “Labeled Peptide of GLA Alpha-galactosidase A” value is listed as 68-82.
Turning to `C#CCCC1(CCC(=O)NCCc2ccc3c(c2)OCO3)N=N1` [probe 15, N-(2-(Benzo[d][1,3]dioxol-5-yl)ethyl)-3-(3-(but-3-yn-1-yl)-3H-diazirin-3-yl)propanamide], the “Labeled Peptide” value in experiment [1] (MCM4 (P33991), residues of the probe-labeled peptide) is reported as 502-516; in experiment [1] (NUDT12 (Q9BQG2), residues of the probe-labeled peptide), 143-166; in experiment [1] (protein FDFT1 Squalene synthase (P37268), residues of probe-labeled peptide), 78-92; in experiment [1] (protein FDFT1 Squalene synthase, residues of probe-labeled peptide), 78-92.
As to `CC(NC(=O)[C@H](Cc1ccccc1)NC(=O)OCc1ccccc1)C(=O)CF` (some centres unmarked) [Z-FA-FMK, reference compound], at cathepsin B (CTSB), the “blockade of probe 9 interaction with CTSB” value is recorded as “blocked”.
For `C#CCCC1(CCC(=O)N2CCC(c3ccccc3)CC2)N=N1` [probe 8, 3-(3-(But-3-yn-1-yl)-3H-diazirin-3-yl)-1-(4-phenylpiperidin-1-yl)propan-1-one], the “Labeled Peptide of HNRNPA1 Heterogeneous nuclear ribonucleoprotein A1” value in experiment [1] (Accession P09651, residues of probe-labeled peptide, family Channels, Transporters, Receptors) was 233-265. Further, the “Labeled Peptide of HIST1H1C Histone H1.2” value in experiment [1] (Accession P16403, residues of probe-labeled peptide, family Transcription factors, Regulators) is 65-75. The “Labeled Peptide” value in experiment [1] (MKI67 (P46013), residues of the probe-labeled peptide) is 648-659; in experiment [1] (protein BAG6 (P46379), residues of probe-labeled peptide) it was 332-344; in experiment [1] (protein CCT8 T-complex protein 1 subunit theta (P50990), residues of probe-labeled peptide) it was 441-450; in experiment [1] (protein CDC37 Hsp90 co-chaperone Cdc37 (Q16543), residues of probe-labeled peptide), 287-307; in experiment [1] (protein DHX9 ATP-dependent RNA helicase A (Q08211), residues of probe-labeled peptide) it was 121-141; in experiment [1] (protein Q14683 SMC1A Structureal maintenance of chromosomes protein 1A), 1070-1086. The “Labeled Peptide” value in experiment [1] (residues of probe-labeled peptide on UBAP2L Ubiquitin-associated protein 2-like, Accession # Q14157) is on record as 239-257. Further, the “probe-modified tryptic peptides in PTGR2” value on PTGR2 is on record as “aa 55-66; also recorded: aa 261-278”.
